According to US9795678B2, “Fast-acting insulin composition comprising a substituted anionic compound and a polyanionic compound” (ADOCIA, priority 2014, dated 2017):

Assays:
[1] = target: T1, hexameric structure of human insulin (Homo sapiens, UniProt P01308); assay: Circular dichroism, CD signal of human insulin at 276 nm; assay type: physicochemical; details: rhINS 100 IU/ml; Compound 7.3 mg/mL
T1 construct: the insulin is a recombinant human insulin as described in the European pharmacopea and the American pharmacopea
Method: The CD signal at 276 nm is characteristic of the hexameric form of insulin (hexamer signal at about −300°, dimer signal between −200° and −250° and monomer signal below −200°). Loss of the CD signal at 276 nm is thus characteristic of a destabilization of the hexamer into dimers or monomers.

[2] = target: hexameric form R6 of lispro insulin (Homo sapiens, UniProt P01308, K53P/P52K); assay: Circular dichroism, CD signal of lispro insulin at 240 nm; details: lispro insulin 100 IU/mL; substituted anionic compound 7.3 mg/mL; citrate 9.3 mM; EDTA 300 μM
[3] = cited from earlier work

T1 sequence (P01308 25-54 limits assumed): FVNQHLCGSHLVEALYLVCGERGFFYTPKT
T1 sequence (P01308 90-110 limits assumed): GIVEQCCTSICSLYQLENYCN
Chain of hexameric form R6 of lispro insulin (P01308 25-54 P52K/K53P limits assumed): as the sequence (P01308 25-54 limits assumed) above, with P28K, K29P counted along it

Impact on the hexameric structure of human insulin (CD signal at 276 nm) [1]	Impact on the R6 form of lispro insulin (CD signal at 240 nm) [2]	Compound	delay of action when compared with a rapid insulin analog (dissociation of hexamers into dimers and monomers) ([3]; Brange J., et al., 1999)	time after which a hypoglycemiant effect occurs ([3]; injected subcutaneously, diabetic patients)
very pronounced impact	completely destructures	O=C(O)CN(CCN(CC(=O)O)CC(=O)O)CC(=O)O [EDTA]	–	–
no impact	no impact	O=C(O)CC(O)(CC(=O)O)C(=O)O [citrate]	–	–
–	–	human insulin: human insulin produced by genetic engineering	up to 20 minutes	60 min

Compound	Impact on the hexameric structure of human insulin (CD signal at 276 nm) [1]	Impact on the R6 form of lispro insulin (CD signal at 240 nm) [2]	delay of action when compared with a rapid insulin analog (dissociation of hexamers into dimers and monomers) ([3]; Brange J., et al., 1999)	time after which a hypoglycemiant effect occurs ([3]; injected subcutaneously, diabetic patients)
O=C(O)CCC(=O)N[C@@H](Cc1ccccc1)C(=O)O [Substituted anionic compound A1, N-(3-carboxy-1-oxopropyl-)-L-phenylalanine]	no impact	–	–	–
